Results: patent US8884072B2, “Mitigation of fouling in hydroformylation processes by water addition” (Dow Technology Investments LLC, priority 2010, dated 2014)

Key:
Format in all cases: physicochemical
[1] = HPPA-Na2 solubility in valeraldehyde/valeraldehyde trimers/1-butene at 70° C., filtrate quantified by ion chromatography (Examples 4-6); conditions: two hours
Protocol: (§1) Valeraldehyde was freshly distilled under reduced pressure prior to use. Valeraldehyde trimers were obtained by vacuum distillation of a commercial catalyst recycle sample. The distillate was determined to be a mixture of 75% valeraldehyde trimers and 25% valeraldehyde dimers by gas chromatography and mass spectrometry (GC/MS). A portion of both valeraldehyde and valeraldehyde trimers was saturated with water, and then blended with freshly distilled material to provide solutions of varying water levels. Unless otherwise noted, all water concentrations were determined by Karl-Fischer titration.
One small portion (130-160 mg) of the disodium salt of hydroxypentylphosphonic acid (HPPA-Na2) was charged to each of three, 3 oz glass pressure vessels. Valeraldehyde, valeraldehyde trimers and 1-butene were then added via syringe and the resulting mixtures (which contained various levels of water) were stirred vigorously at 70° C. for two hours. Samples were then removed at temperature, quickly filtered, and the filtrate was twice extracted with water to facilitate the quantization of HPPA-Na2 solubility by ion chromatography.
The solutions of Examples 4-6 were intended to model actual hydroformylation solution conditions.

[2] = Observation of HPPA-Na2 in valeraldehyde/valeraldehyde trimers (2:1) and 1-butene, stirred at room temperature for two hours (Examples 1-3)
Protocol: as §1
One small portion (70 mg) of a disodium salt of hydroxypentylphosphonic acid (HPPA-Na2) was charged to each of three, 3 oz glass pressure vessels. Valeraldehyde, valeraldehyde trimers (2:1 weight ratio) and 1-butene were then added via syringe and stirred at room temperature for two hours.

[3] = Solubility properties of HPPA-Na2 under simulated hydroformylation reaction conditions with incremental water addition (Example 7)
Protocol: A small portion (67 mg) of the disodium salt of hydroxypentylphosphonic acid (HPPA-Na2) was charged to a 3 oz glass pressure vessel. A 2:1 mixture of valeraldehyde and valeraldehyde trimers (4.07 g) was added, and stirring was initiated at room temperature. Butene-1 (1.22 g) was added via syringe, and the tube was placed in an oil bath at 70° C. Additional water was slowly added to determine solubility properties under simulated hydroformylation reaction conditions. Total water content is based on the initial water level (determined by K—F titration) plus the incremental water additions made throughout.

[4] = Observation of HPPA-Na2 in anhydrous valeraldehyde at room temperature (Comparative Example 1); conditions: 15 mg in anhydrous valeraldehyde (3.52 g; 0.0961 wt % water), two hours
Protocol: One small portion (15 mg) of a disodium salt of hydroxypentylphosphonic acid (HPPA-Na2) was charged to a 20 ml glass vial under nitrogen. Anhydrous valeraldehyde (3.52 g; 0.0961 wt % water) was added and the resulting mixture was stirred at room temperature.

## CCCCC(O)P(=O)([O-])[O-].[Na+].[Na+] (centres unmarked) [HPPA-Na2, disodium salt of hydroxypentylphosphonic acid]
[1]; Ex. 4, Val. 52.0 wt %, Val Trimer 26.0 wt %, 1-butene 21.2 wt %, Water 0.103 wt %
  HPPA-Na2 solubility: 4.8 ppm
[1]; Ex. 4, Water 0.103 wt %
  Description: Hazy watery
[1]; Ex. 5, Val. 52.1 wt %, Val Trimer 26.0 wt %, 1-butene 21.1 wt %, Water 0.380 wt %
  HPPA-Na2 solubility: 15.5 ppm
[1]; Ex. 5, Water 0.380 wt %
  Description: Very hazy
[1]; Ex. 6, Val. 52.7 wt %, Val Trimer 26.4 wt %, 1-butene 20.8 wt %, Water 0.860 wt %
  HPPA-Na2 solubility: 21.3 ppm
[1]; Ex. 6, Water 0.860 wt %
  Description: Solid gel
[2]; Example 1, val/val trimer 8.42 g, 1-butene 2.41 g, Water 0.29 %
  Observations: Voluminous, gelatinous
[2]; Example 2, val/val trimer 8.94 g, 1-butene 2.26 g, Water 0.87 %
  Observations: Mixture of gel and sticky
[2]; Example 3, val/val trimer 8.97 g, 1-butene 2.22 g, Water 1.47 %
  Observations: Sticky material on glass
[3]; 22 ° C., water content 0.86 %, additive 1.22 g 1-butene
  Result: No change
[3]; 22 ° C., water content 0.86 %, additives None
  Result: Opaque with sticky, gelatinous
[3]; 70 ° C., water content 0.86 %, additives None
  Result: No change
[3]; 70 ° C., water content 3.19 %, additive 0.1 mL water
  Result: No change
[3]; 70 ° C., water content 5.54 %, additive 0.1 mL water
  Result: Less turbid
[3]; 70 ° C., water content 7.72 %, additive 0.1 mL water
  Result: Much less turbid; solids gone
[3]; 70 ° C., water content 9.8 %, additive 0.1 mL water
  Result: Clear solution
[4]
  Appearance of the solids after stirring: the solids remained free-flowing, suspended particulates
